Measured values from paper PMC7915867, “Discovery of a Small Molecule Inhibitor of Human Adenovirus Capable of Preventing Escape from the Endosome” (International Journal of Molecular Sciences, 2021).
Read-outs that look alike come from different tables or passages of the source.

Assays:
wild-type HAdV5 = assay: Virus yield reduction (virus burst assay); format: cell-based, human adenovirus; settings: A549 cells, HAdV 100 vp/cell, 48 h; niclosamide 5 μM, 16 at 10-fold IC50; versus DMSO
Description: After 48 h, cells were harvested and subjected to three rounds of freeze/thaw. Serial dilutions of clarified lysates were titrated on A549 cells (3 × 10^4 cells/well), and we calculated TCID50 values using an endpoint dilution method.

HAdV-5 DNA replication = assay: HAdV DNA quantification by real-time PCR (DNA replication); format: cell-based, human adenovirus; settings: A549 cells, 24 h, HAdV5 100 vp/cell; 16 at 7.8 μM (10-fold IC50), niclosamide 5 μM; versus DMSO
Description: All samples were carried out in duplicate. After incubation for 24 h at 37 °C, DNA was purified from the cell lysate with the E.Z.N.A.® Tissue DNA Kit (Omega Bio-tek, Norcross, GA, USA) following the manufacturer’s instructions. TaqMan primers and probes for a common region of the HAdV5 hexon were designed with the GenScript Real-Time PCR (TaqMan) Primer Design software (GenScript, Leiden, Netherlands). Oligonucleotides sequences were: AQ1: 5′-GCCACGGTGGGGTTTCTAAACTT-3′; AQ2: 5′-GCCCCAGTGGTCTTACATGCACAT-3′; Probe: 6-FAM-5′-TGCACCAGACCCGGGCTCAGGTACTCCGA-3′-TAMRA. Real-time PCR mixtures contained 9.5 μL of the purified DNA, AQ1 and AQ2 at a concentration of 200 nM each and Probe at a concentration of 50 nM in a total volume of 25 μL. The PCR cycling protocol was 95 °C for 3 min followed by 40 cycles of 95 °C for 10 s and 60 °C for 30 s. Human glyceraldehyde-3-phosphate dehydrogenase (GAPDH) gene was applied as internal control. Oligonucleotides sequences for GAPDH and conditions were previously reported by Rivera et al..
For quantification, gene fragments from hexon and GAPDH were cloned into the pGEM-T Easy vector (Promega, MA, USA), and known concentrations of template were used to produce a standard curve in parallel for each experiment. All assays were done in thermal cycler LightCycler® 96 System (Roche, Basel, Switzerland).

HAdV5-GFP [1] = assay: microbe, parasite or virus in culture; format: cell-based, human adenovirus; settings: for inhibition at 10 µM / IC50: Human adenovirus sp.; for inhibition at 10 µM: read-out: Plaque Assay (10 μM) (%) Inhibition; for IC50: read-out: Plaque Assay IC50; for Selectivity Index (SI): ratio of CC50 to IC50 in plaque assay; for Plaque Assay (10 μM) (%) Inhibition: HAdV5-GFP, low MOI (0.06 vp/cell), 293β5 cell line
Description: Compounds were measured at concentrations of 10 μM and in a dose−response assay ranging from 10 to 0.3 μM using low MOI infections (0.06 vp/cell) in a plaque assay. […] Cells were infected with HAdV5-GFP (0.06 vp/cell) and rocked for 2 h at 37 °C, when cells reached 80%–90% confluency. When the incubation was finished, the inoculum was removed followed by washing the cells once with PBS. […] The compounds were also added to the mixture in concentrations ranging from 10 to 0.3 μM. After incubation for 7 days at 37 °C, we scanned plates with a Typhoon FLA 9000 imager (GE Healthcare Life Sciences, MA, USA) and quantified plaques with ImageJ [47].

HAdV5 = assay: HAdV-mediated endosome disruption (α-sarcin co-delivery assay); format: cell-based, human adenovirus; settings: A549 cells, niclosamide 5 μM, independent of virus concentration
Description: A549 cells (~20,000 cells/well) were incubated in DMEM without cysteine or methionine supplemented with 10% dialyzed FBS [DMEM (−)] in black 96-well plates for 1 h before infection. […] The medium was then removed and replaced with 50 μL DMEM (−) containing 0.1 mg/mL α-sarcin (Santa Cruz Biotechnology, Dallas, TX, USA) and the virus and drug mixtures. After 2 h at 37 °C, the Click-iT HPG Alexa Fluor 488 Protein Synthesis Assay Kits (Invitrogen, MA, USA) were used to analyze protein synthesis according to the manufacturer’s instructions. The incorporation of the amino acid analog of methionine L-homopropargylglycine (HPG) containing Alexa Fluor 488 azide was measured using a Typhoon 9410 imager (GE Healthcare Life Sciences, MA, USA) and calculated subtracting the background level of the control well containing L-homopropargylglycine (HPG) and α-sarcin but not virus (100% incorporation).

[2] = Cytotoxicity assay (AlamarBlue); format: cell-based; settings: human, A549 cells, A549 cell line
Description: The cytotoxicity of these derivatives was tested by commercial kit AlamarBlue® (Ref. DAL1025, Invitrogen, MA, USA). […] The cytotoxic concentration 50 (CC50) value was obtained by using the statistical package GraphPad Prism. This assay was performed in duplicate.

HAdV5-GFP [3] = settings: read-out: IC50 (anti-HAdV); cited from earlier work
A549 cells = settings: cited from earlier work

SMILES: O=C(Nc1ccc([N+](=O)[O-])cc1Cl)c1cc(Cl)ccc1O [Compound 3, niclosamide, reference compound]
- Virus Yield Reduction (wild-type HAdV5): 82 ± 35 fold
- Inhibition of HAdV-5 DNA replication (qPCR) (HAdV-5 DNA replication): prevented any detectable DNA replication
- inhibition at 10 µM (HAdV5-GFP [1]): 100%
- IC50 (HAdV5-GFP [1]): 0.6 ± 0.05 µM
- HPG incorporation compared to control without α-sarcin (HAdV5): under 50%

SMILES: O=C(NCCC1CCCCC1)c1cc(Cl)ccc1O [Compound 20, 5-Chloro-N-(2-cyclohexylethyl)-2-hydroxybenzamide]
- CC50 at 48 h [2]: 66.3 ± 7.9 µM
- inhibition at 10 µM (HAdV5-GFP [1]): 97.8 ± 1.7%
- IC50 (HAdV5-GFP [1]): 1 ± 0.1 µM
- Selectivity Index (SI) (HAdV5-GFP [1]): 64.3

SMILES: CC1(Nc2ccc(NC(=O)c3cc(Cl)ccc3O)c(Cl)c2)CCCC1 [Compound 5]
- IC50 (HAdV5-GFP [3]): 0.27 µM
- CC50 (A549 cells): 157 µM

SMILES: CCCCCCNC(=O)c1cc(Cl)ccc1O [Compound 24, 5-Chloro-N-hexyl-2-hydroxybenzamide]
- CC50 at 48 h [2]: 23.8 ± 3.1 µM
- inhibition at 10 µM (HAdV5-GFP [1]): 98.5 ± 2.1%
- IC50 (HAdV5-GFP [1]): 3.73 ± 0.64 µM
- Selectivity Index (SI) (HAdV5-GFP [1]): 6.4

SMILES: O=C(NC1CCOCC1)c1cc(Cl)ccc1O [Compound 14, 5-Chloro-2-hydroxy-N-(tetrahydro-2H-pyran-4-yl)benzamide]
- Plaque Assay (10 μM) (%) Inhibition (HAdV5-GFP [1]): completely inactive
- inhibition at 10 µM (HAdV5-GFP [1]): 0%

SMILES: O=C(NC1CCCCC1)c1cc(Cl)ccc1O [Compound 12, 5-Chloro-N-cyclohexyl-2-hydroxybenzamide]
- inhibition at 10 µM (HAdV5-GFP [1]): 57.6 ± 0.2%

SMILES: CC(C)(C)OC(=O)N1CCC(NC(=O)c2cc(Cl)ccc2O)CC1 [Compound 15, tert-Butyl 4-(5-chloro-2-hydroxybenzamido)piperidine-1-carboxylate]
- inhibition at 10 µM (HAdV5-GFP [1]): 52.2 ± 7.1%

SMILES: O=C(NCCN1CCOCC1)c1cc(Cl)ccc1O [Compound 23, 5-Chloro-2-hydroxy-N-(2-morpholinoethyl)benzamide]
- Plaque Assay (10 μM) (%) Inhibition (HAdV5-GFP [1]): neither piperazine analogue (21 and 22) nor the morpholine analogue 23 showed meaningful inhibitory activity
- inhibition at 10 µM (HAdV5-GFP [1]): 0%

SMILES: CC(C)(C)OC(=O)NCCCCNC(=O)c1cc(Cl)ccc1O [Compound 25, tert-Butyl (4-(5-chloro-2-hydroxybenzamido)butyl)carbamate]
- inhibition at 10 µM (HAdV5-GFP [1]): 74 ± 5.7%

SMILES: O=C(NC1CCCCCC1)c1cc(Cl)ccc1O [Compound 13, 5-Chloro-N-cycloheptyl-2-hydroxybenzamide]
- CC50 at 48 h [2]: 30.9 ± 6.3 µM
- inhibition at 10 µM (HAdV5-GFP [1]): 99.6 ± 0.2%
- IC50 (HAdV5-GFP [1]): 4.7 ± 0.1 µM
- Selectivity Index (SI) (HAdV5-GFP [1]): 6.6

SMILES: O=C(c1cc(Cl)ccc1O)N1CCCCC1 [Compound 26, (5-Chloro-2-hydroxyphenyl)(piperidin-1-yl)methanone]
- inhibition at 10 µM (HAdV5-GFP [1]): 0%

SMILES: C[C@H](NC(=O)c1cc(Cl)ccc1O)C1CCCCC1 [Compound 17, (S)-5-Chloro-N-(1-cyclohexylethyl)-2-hydroxybenzamide]
- CC50 at 48 h [2]: 23 ± 1.3 µM
- inhibition at 10 µM (HAdV5-GFP [1]): 100%
- IC50 (HAdV5-GFP [1]): 0.51 ± 0.14 µM
- Selectivity Index (SI) (HAdV5-GFP [1]): 45.1

SMILES: CC(C)C(NC(=O)c1cc(Cl)ccc1O)C(=O)Nc1ccc([N+](=O)[O-])cc1Cl (stereo not drawn) [Compound 6]
- IC50 (HAdV5-GFP [3]): 0.45 µM
- CC50 (A549 cells): 200 µM

SMILES: CC(C)(C)OC(=O)N1CCN(CCNC(=O)c2cc(Cl)ccc2O)CC1 [Compound 21, tert-Butyl 4-(2-(5-chloro-2-hydroxybenzamido)ethyl)piperazine-1-carboxylate]
- Plaque Assay (10 μM) (%) Inhibition (HAdV5-GFP [1]): neither piperazine analogue (21 and 22) nor the morpholine analogue 23 showed meaningful inhibitory activity
- inhibition at 10 µM (HAdV5-GFP [1]): 22.2 ± 13.2%

SMILES: CN1CCN(CCNC(=O)c2cc(Cl)ccc2O)CC1 [Compound 22, 5-Chloro-2-hydroxy-N-(2-(4-methylpiperazin-1-yl)ethyl)benzamide]
- Plaque Assay (10 μM) (%) Inhibition (HAdV5-GFP [1]): neither piperazine analogue (21 and 22) nor the morpholine analogue 23 showed meaningful inhibitory activity
- inhibition at 10 µM (HAdV5-GFP [1]): 0%

SMILES: O=C(NC1CCCC1)c1cc(Cl)ccc1O [Compound 11, 5-Chloro-N-cyclopentyl-2-hydroxybenzamide]
- inhibition at 10 µM (HAdV5-GFP [1]): 22.6 ± 7.4%

SMILES: CC(=O)N1CCN(C(=O)c2cc(Cl)ccc2O)CC1 [Compound 27, 1-(4-(5-Chloro-2-hydroxybenzoyl)piperazin-1-yl)ethanone]
- inhibition at 10 µM (HAdV5-GFP [1]): 0%

SMILES: CN1CCN(C(=O)c2cc(Cl)ccc2O)CC1 [Compound 28, (5-Chloro-2-hydroxyphenyl)(4-methylpiperazin-1-yl)methanone]
- inhibition at 10 µM (HAdV5-GFP [1]): 0%

SMILES: O=C(Nc1cc(F)cc(C(F)(F)F)c1)c1cc(Cl)ccc1O [Compound 4]
- IC50 (HAdV5-GFP [3]): 0.18 µM
- CC50 (A549 cells): 120 µM

SMILES: O=C(NCC1CCOCC1)c1cc(Cl)ccc1O [Compound 18, 5-Chloro-2-hydroxy-N-((tetrahydro-2H-pyran-4-yl)methyl)benzamide]
- Plaque Assay (10 μM) (%) Inhibition (HAdV5-GFP [1]): no anti-HAdV activity
- inhibition at 10 µM (HAdV5-GFP [1]): 0%

SMILES: CC(C)(C)OC(=O)N1CCC(CNC(=O)c2cc(Cl)ccc2O)CC1 [Compound 19, tert-Butyl 4-((5-chloro-2-hydroxybenzamido)methyl)piperidine-1-carboxylate]
- inhibition at 10 µM (HAdV5-GFP [1]): 88.5 ± 1.9%
